# Experimental data taken from ChEMBL document CHEMBL5579820, “New insights into butyrylcholinesterase: Pharmaceutical applications, selective inhibitors and multitarget-directed ligands” (Eur J Med Chem, 2024).
# Where “and” joins values, the source holds several entries; their conditions need not be identical. Equal values may be shown once.
# Assays:
# Cholinesterase [1] = target: T1, Cholinesterase (Homo sapiens, UniProt P06276)
# Acetylcholinesterase [2] = target: T2, Acetylcholinesterase (Homo sapiens, UniProt P22303)
# T2 sequence (P22303 whole entry): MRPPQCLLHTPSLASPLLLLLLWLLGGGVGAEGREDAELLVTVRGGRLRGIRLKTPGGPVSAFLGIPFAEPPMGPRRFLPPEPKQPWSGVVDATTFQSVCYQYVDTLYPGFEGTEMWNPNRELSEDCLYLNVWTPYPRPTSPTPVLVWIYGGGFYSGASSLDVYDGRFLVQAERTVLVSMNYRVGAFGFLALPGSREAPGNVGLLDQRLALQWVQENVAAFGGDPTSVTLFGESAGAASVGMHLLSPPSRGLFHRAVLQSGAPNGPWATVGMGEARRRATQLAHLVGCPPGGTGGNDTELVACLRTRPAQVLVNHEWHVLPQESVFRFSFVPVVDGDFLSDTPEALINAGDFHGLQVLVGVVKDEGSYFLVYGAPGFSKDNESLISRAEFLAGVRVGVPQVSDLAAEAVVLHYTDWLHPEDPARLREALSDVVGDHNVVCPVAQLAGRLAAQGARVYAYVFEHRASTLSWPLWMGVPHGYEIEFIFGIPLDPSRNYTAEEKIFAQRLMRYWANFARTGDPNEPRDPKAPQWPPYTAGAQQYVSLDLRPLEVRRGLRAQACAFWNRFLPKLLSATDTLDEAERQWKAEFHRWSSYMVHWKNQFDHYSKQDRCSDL
# Cholinesterase [3] = target: T3, Cholinesterase (Equus caballus, UniProt P81908); assay: Inhibition of equine BuChE
# T3 sequence (P81908 whole entry): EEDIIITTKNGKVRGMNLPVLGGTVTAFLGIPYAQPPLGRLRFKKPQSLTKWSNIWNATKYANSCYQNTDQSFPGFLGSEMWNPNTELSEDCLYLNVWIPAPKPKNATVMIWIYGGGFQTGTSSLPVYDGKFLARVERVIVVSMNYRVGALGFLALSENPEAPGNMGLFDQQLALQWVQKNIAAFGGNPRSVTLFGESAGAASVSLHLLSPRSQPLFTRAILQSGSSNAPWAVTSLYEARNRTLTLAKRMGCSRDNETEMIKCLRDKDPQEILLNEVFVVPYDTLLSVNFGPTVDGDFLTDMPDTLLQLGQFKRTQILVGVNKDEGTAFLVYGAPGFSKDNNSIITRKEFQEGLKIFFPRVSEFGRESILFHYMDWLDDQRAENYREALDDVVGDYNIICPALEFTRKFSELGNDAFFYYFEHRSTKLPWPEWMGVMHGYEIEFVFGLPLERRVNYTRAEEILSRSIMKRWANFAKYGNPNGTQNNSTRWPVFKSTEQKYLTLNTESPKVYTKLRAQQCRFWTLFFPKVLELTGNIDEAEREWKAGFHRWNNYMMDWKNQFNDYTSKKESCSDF
# Acetylcholinesterase [4] = target: T4, Acetylcholinesterase (Electrophorus electricus, UniProt O42275); assay: Inhibition of electric eel AChE
# T4 sequence (O42275 whole entry): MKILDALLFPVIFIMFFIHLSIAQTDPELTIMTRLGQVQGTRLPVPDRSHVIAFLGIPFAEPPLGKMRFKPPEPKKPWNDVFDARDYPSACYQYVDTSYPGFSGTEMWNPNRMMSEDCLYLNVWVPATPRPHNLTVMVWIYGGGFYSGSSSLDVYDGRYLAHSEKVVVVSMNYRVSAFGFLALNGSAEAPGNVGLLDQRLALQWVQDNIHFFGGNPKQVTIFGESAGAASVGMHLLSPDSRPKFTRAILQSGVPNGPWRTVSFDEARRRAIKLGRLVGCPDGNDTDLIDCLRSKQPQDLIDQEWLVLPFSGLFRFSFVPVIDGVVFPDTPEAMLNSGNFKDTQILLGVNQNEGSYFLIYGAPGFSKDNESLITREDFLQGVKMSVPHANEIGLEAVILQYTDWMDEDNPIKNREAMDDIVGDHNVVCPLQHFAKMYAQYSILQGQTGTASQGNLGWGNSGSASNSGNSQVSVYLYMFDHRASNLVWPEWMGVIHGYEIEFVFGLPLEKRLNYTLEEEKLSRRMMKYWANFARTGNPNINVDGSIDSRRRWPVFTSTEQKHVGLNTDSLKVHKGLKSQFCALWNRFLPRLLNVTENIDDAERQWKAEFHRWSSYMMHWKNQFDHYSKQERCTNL
# Acetylcholinesterase [5] = target: T4, Acetylcholinesterase; assay: Inhibition of Electric eel AChE using […] as substrate by spectrophotometry based Ellman's method
# [6] = Inhibition of equine serum BChE using butyrylthiocholine iodide as substrate by Ellman's method; set-up: species or system Equus caballus
# [7] = target: T5, Amine oxidase [flavin-containing] A (Homo sapiens, UniProt P21397); assay: Inhibition of human recombinant MAO-A using kynuramine as substrate by incubated for 75 mins by spectrophotometric analysis
# T5 sequence (P21397 whole entry): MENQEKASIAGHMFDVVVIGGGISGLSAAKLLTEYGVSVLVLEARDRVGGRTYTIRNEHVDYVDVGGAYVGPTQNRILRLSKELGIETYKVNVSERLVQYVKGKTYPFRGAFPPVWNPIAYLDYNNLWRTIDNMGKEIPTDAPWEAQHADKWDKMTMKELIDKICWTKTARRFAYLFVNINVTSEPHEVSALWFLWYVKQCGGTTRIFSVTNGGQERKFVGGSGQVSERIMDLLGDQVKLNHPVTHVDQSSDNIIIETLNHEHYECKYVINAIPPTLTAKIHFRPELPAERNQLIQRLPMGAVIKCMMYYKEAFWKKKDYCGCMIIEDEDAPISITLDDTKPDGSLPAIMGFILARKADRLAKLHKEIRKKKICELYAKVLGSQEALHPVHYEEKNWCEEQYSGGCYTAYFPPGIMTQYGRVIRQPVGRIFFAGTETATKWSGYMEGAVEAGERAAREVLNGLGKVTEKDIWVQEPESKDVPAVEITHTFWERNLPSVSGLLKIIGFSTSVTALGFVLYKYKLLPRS
# [8] = target: T6, Amine oxidase [flavin-containing] B (Homo sapiens, UniProt P27338); assay: Inhibition of human recombinant MAO-B using benzylamine as substrate by fluorescence based analysis
# T6 sequence (P27338 whole entry): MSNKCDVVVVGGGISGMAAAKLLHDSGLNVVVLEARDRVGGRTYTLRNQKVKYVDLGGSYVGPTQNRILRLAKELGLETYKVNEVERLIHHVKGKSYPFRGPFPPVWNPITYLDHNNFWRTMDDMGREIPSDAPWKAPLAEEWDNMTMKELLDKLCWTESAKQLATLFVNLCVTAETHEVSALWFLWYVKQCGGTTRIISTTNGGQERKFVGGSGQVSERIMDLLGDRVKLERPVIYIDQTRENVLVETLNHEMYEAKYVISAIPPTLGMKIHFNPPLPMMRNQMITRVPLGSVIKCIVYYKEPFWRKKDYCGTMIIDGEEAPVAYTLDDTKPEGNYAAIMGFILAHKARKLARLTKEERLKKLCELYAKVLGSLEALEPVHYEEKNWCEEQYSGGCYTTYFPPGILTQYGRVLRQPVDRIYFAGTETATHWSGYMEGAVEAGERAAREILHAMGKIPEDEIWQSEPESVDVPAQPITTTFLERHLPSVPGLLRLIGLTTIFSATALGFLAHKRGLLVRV
# [9] = Inhibition of equine serum BChE using butyrylthiocholine iodide as substrate by measured after 30 mins Ellman's method; assay type: cell-free, Equus caballus
# [10] = Selectivity index, ratio of IC50 for human AChE using acetylthiocholine iodide as substrate to IC50 for equine serum BuChE using butyrylthiocholine iodide as substrate
# [11] = target: Acetylcholinesterase (Electrophorus electricus) (UniProt O42275); assay: Inhibition of electric eel AChE using acetylthiocholine iodide as substrate at 50 uM by Ellman's method relative to control
# Sequence of Acetylcholinesterase (Electrophorus electricus) (O42275 24-633 limits assumed): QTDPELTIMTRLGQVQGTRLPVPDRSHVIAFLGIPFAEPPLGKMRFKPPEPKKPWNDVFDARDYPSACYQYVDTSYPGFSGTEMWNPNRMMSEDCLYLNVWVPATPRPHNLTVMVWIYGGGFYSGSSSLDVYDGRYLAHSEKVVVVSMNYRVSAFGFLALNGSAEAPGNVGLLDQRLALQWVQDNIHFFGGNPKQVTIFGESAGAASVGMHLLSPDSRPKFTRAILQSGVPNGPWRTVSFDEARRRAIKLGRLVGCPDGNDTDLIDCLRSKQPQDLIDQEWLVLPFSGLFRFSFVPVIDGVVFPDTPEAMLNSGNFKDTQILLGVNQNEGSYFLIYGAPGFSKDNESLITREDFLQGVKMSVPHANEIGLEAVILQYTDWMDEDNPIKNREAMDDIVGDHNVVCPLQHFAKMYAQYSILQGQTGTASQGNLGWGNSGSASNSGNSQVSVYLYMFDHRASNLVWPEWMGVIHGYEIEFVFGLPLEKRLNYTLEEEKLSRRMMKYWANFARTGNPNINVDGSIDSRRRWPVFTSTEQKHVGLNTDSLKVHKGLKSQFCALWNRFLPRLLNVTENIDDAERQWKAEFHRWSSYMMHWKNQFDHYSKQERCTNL
# [12] = target: T7, Protein deacetylase HDAC6 (Homo sapiens, UniProt Q9UBN7); assay: Inhibition of HDAC6 (unknown origin)
# T7 sequence (Q9UBN7 whole entry): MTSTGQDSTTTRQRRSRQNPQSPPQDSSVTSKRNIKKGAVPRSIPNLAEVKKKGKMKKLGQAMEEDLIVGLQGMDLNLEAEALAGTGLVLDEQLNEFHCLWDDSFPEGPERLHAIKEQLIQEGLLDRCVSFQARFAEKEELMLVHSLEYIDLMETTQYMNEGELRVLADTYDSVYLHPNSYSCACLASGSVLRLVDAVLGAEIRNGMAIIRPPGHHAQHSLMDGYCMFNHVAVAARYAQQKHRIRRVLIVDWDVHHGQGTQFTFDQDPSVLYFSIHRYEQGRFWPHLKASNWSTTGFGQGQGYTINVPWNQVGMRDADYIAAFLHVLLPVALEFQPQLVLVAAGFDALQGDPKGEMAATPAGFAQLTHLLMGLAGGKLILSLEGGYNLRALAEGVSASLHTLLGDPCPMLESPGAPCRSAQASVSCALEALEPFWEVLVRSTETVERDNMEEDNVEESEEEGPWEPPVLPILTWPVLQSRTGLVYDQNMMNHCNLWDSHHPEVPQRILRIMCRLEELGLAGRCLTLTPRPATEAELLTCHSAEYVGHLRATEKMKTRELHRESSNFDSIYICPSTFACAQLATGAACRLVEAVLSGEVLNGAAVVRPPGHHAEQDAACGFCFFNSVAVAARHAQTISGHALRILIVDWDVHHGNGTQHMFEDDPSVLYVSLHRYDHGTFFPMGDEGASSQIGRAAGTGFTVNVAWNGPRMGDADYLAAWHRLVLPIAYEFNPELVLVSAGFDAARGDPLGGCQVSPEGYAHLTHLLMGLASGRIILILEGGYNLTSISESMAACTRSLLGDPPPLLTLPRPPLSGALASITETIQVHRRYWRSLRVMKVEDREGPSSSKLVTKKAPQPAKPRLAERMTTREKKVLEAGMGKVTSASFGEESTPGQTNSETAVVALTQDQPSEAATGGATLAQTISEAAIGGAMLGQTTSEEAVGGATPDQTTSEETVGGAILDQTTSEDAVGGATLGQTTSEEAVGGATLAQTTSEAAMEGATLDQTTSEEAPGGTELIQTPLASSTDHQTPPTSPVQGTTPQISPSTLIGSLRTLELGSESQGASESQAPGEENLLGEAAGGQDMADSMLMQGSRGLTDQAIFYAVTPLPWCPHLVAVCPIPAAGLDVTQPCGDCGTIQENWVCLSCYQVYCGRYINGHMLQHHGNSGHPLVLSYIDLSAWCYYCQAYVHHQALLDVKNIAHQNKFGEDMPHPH
# Cholinesterase [13] = target: T1, Cholinesterase; assay: Inhibition of human BChE using butyrylthiocholine iodide as substrate preincubated for 15 min followed by substrate addition measured after 40 min by Ellman's method
# [14] = Selectivity index, ratio of IC50 for electric eel AChE to IC50 for equine serum BuChE
# [15] = Selectivity index, ratio of IC50 for human erythrocyte AChE to IC50 for equine BuChE
# [16] = target: Cholinesterase (Equus caballus) (UniProt P81908); assay: Inhibition of equine BChE at 100 uM by Ellman's method relative to control
# Sequence of Cholinesterase (Equus caballus) (P81908 whole entry): as the sequence (P81908 whole entry) above
# [17] = Selectivity index, ratio of IC50 for human AChE to IC50 for equine BChE using butyrylthiocholine as substrate
# Cholinesterase [18] = target: T1, Cholinesterase; assay: Inhibition of human BChE using butyrylthiocholineiodide as substrate at 10 uM by Ellman's method relative to control
# Acetylcholinesterase [19] = target: T4, Acetylcholinesterase; assay: Inhibition of electric eel AChE using acetylthiocholine iodide as substrate after 60 mins by Ellman's method
# Cholinesterase [20] = target: T3, Cholinesterase; assay: Inhibition of equine serum BuChE by Ellman's method
# Acetylcholinesterase [21] = target: T2, Acetylcholinesterase; assay: Inhibition of human AChE at 15 uM relative to control
# Cholinesterase [22] = target: T3, Cholinesterase; assay: Inhibition of equine serum BuChE using butyrylthiocholine iodide as substrate preincubated for 60 mins followed by susbtrate addition by Ellaman"s method; assay type: cell-free
# [23] = target: Cholinesterases; ACHE & BCHE (Homo sapiens) (UniProt P06276+P22303); assay: Selectivity index, ratio of IC50 for inhibition of human AChE to IC50 for inhibition of human BChE; assay type: protein assay
# Sequence of Cholinesterases; ACHE & BCHE (Homo sapiens) (P06276 whole entry, looked up): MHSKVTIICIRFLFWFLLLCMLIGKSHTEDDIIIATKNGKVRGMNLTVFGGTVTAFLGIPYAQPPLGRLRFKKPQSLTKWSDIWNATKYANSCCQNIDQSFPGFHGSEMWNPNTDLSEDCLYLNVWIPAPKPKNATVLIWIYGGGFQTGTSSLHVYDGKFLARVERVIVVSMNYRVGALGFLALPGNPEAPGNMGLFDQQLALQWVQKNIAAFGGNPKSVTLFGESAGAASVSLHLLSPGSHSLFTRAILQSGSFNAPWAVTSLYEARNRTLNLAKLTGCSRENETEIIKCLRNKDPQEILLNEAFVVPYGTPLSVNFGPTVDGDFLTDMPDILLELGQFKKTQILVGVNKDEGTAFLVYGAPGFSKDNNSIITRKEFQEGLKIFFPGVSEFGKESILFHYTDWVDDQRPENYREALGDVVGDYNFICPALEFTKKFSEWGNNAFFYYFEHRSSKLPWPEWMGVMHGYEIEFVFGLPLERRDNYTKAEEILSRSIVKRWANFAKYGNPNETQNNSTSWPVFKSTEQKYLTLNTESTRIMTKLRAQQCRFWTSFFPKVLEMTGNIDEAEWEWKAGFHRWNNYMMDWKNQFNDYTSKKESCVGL
# Sequence of Cholinesterases; ACHE & BCHE (Homo sapiens) (P22303 whole entry, looked up): as the sequence (P22303 whole entry) above
# Acetylcholinesterase [24] = target: T2, Acetylcholinesterase; assay: Inhibition of human AChE using acetylthiocholine iodide as substrate after 15 mins by Ellman's method
# [25] = target: Amyloid-beta precursor protein (Homo sapiens) (UniProt P05067); assay: Inhibition of self induced amyloid-beta aggregation (1 to 42 residues) (unknown origin) at 20 uM by ThT fluorescence based spectrofluorimetric analysis relative to control
# Sequence of Amyloid-beta precursor protein (Homo sapiens) (P05067 whole entry, the tested form may be a part): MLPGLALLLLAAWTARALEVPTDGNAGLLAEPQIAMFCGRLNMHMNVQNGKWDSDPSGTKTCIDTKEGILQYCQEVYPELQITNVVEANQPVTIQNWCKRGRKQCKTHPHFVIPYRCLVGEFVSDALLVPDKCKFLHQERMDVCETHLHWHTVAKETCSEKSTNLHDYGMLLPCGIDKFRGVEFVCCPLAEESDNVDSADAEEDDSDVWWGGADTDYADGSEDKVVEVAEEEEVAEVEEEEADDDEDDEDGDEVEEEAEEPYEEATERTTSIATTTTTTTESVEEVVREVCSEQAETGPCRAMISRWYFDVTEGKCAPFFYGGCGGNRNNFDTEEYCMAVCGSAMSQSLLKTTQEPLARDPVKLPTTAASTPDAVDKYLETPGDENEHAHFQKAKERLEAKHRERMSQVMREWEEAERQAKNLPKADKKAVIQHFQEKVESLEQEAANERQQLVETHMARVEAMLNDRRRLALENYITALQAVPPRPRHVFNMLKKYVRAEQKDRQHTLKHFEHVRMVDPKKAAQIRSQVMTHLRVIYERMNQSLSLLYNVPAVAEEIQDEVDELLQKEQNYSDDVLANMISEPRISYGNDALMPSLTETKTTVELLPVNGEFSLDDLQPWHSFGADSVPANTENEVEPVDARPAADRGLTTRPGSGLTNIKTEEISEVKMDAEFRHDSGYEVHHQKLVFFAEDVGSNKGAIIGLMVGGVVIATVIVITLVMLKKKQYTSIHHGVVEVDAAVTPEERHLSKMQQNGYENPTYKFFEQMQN
# Cholinesterase [26] = target: T1, Cholinesterase; assay: Inhibition of BChE (unknown origin)
# Cholinesterase [27] = target: T1, Cholinesterase; assay: Inhibition of human BChE using butyrylthiocholine as substrate by Ellman's method
# T1 sequence (P06276 whole entry): as the sequence (P06276 whole entry, looked up) above
compound,measurement,setting,value
COc1cccc(NC(=O)CN(C)[C@@H](C)C(=O)c2c[nH]c3ccccc23)c1,IC50,Cholinesterase [1],4.24 µM
same,IC50,Acetylcholinesterase [2],> 100 µM
Fc1ccc2c(c1)c1c(n2CCN2CCCCC2)CCCC1,IC50,Cholinesterase [3],0.11 µM
same,IC50,Acetylcholinesterase [4],> 100 µM
Cc1ccc(-c2nc3cc(C(=O)NNc4ccc(Br)cc4)ccc3[nH]2)cc1,IC50,Acetylcholinesterase [5],> 100 µM
same,IC50,[6],1.46 µM
O=C(/C=C/c1ccccc1Cl)c1cc2ccccc2oc1=O,IC50,[7],> 40 µM
same,IC50,[8],0.51 µM
same,IC50,[9],7 µM
CCc1[nH]c2ccccc2c1CCN1CCC[C@H](CC)C1,IC50,Cholinesterase [1],0.65 µM
same,IC50,Acetylcholinesterase [2],> 100 µM
CN(C)C(=O)Oc1ccc(C(=O)C2CCC(Cc3ccccc3)CC2)c(OC(=O)N(C)C)c1 (stereo not drawn),IC50,Cholinesterase [3],0.53 µM
same,IC50,Acetylcholinesterase [4],7.8 µM
CCc1ccccc1NC(=O)c1ccc(NS(=O)(=O)c2ccccc2)cc1,Ratio IC50,[10],> 1080
same,IC50,Cholinesterase [3],0.046 µM and 0.04 µM
same,inhibition,[11],0.52%
same,IC50,Acetylcholinesterase [2],> 50 µM
CCN(CC)Cc1ccccc1CNC(=O)c1cccc(NC(=O)c2cccc(C(=O)NO)c2)c1,IC50,[12],0.071 µM
same,IC50,Cholinesterase [13],0.0018 µM
CCCCCCNC(=O)Oc1ccc2[nH]cc(CCNC(=O)c3ccccc3Nc3ccccc3)c2c1,IC50,Cholinesterase [3],0.007 µM
same,IC50,Acetylcholinesterase [4],> 100 µM
same,Ratio IC50,[14],> 14300
CCN(CC)Cc1ccccc1CNC(=O)c1cccc(NC(=O)c2cccc(NC(=O)CCCCCCC(=O)NO)c2)c1,IC50,[12],0.0089 µM
same,IC50,Cholinesterase [13],0.004 µM
CC(C)(C)c1cc(CNCCNc2c3c(nc4ccccc24)CCCCC3)cc(C(C)(C)C)c1O,Ratio IC50,[15],23
NNc1nc(NN)nc(NCCNC(=O)c2cc3c([nH]c4ccccc43)c(-c3ccccc3)n2)n1,IC50,Cholinesterase [3],1 µM
same,inhibition,[16],29.5%
CCNC(=S)N/N=C/c1c(OC)cc(OC)c2c(-c3ccccc3)c[nH]c12,IC50,Cholinesterase [1],1.95 µM
same,IC50,Acetylcholinesterase [2],59.4 µM
O=C(CNCCCCNCC(=O)Nc1c2c(nc3c1CCC3)CCCC2)Nc1c2c(nc3c1CCC3)CCCC2,Ratio IC50,[17],22
c1ccc(CN2CCC(NCCCCCCn3c4ccccc4c4ccccc43)CC2)cc1,IC50,Cholinesterase [3],0.18 µM
same,IC50,Acetylcholinesterase [4],26.5 µM
COc1cccc(C(=O)OCc2ccccc2)c1OC(=O)N(C)OC,IC50,Cholinesterase [3],0.99 µM
same,IC50,Acetylcholinesterase [4],> 100 µM
same,inhibition,Cholinesterase [18],50%
[O-]/[N+](=C\c1ccc2cccc(O)c2n1)Cc1ccccc1,IC50,[7],> 100 µM
CCC(=O)N(CC(=O)Nc1ccccc1C)Cc1ccccc1,IC50,Acetylcholinesterase [19],> 1610 µM
same,IC50,Cholinesterase [20],25.9 µM
CCCCCCNC(=O)Oc1ccc2c(c1)CN1CCc3ccc(/N=N\c4ccccc4)cc3C1N2C (stereo not drawn),inhibition,Acetylcholinesterase [21],54.9%
same,IC50,Cholinesterase [1],0.044 µM
O=C(NCCCCCCCCNc1c2c(nc3ccccc13)CCCC2)c1ccccc1O,IC50,Cholinesterase [22],0.01 µM
CCN(CC)C(=O)c1ccc2c(c1)nc(Cc1ccc(OC(=O)N3CCC3)cc1)n2CCC(C)C,Ratio IC50,[23],10
same,IC50,Cholinesterase [1],0.006 µM
CC(C)N(Cc1ccccc1)C(=O)/C=C/C=C/c1ccc2c(c1)OCO2,IC50,Acetylcholinesterase [19],> 1000 µM
same,IC50,Cholinesterase [20],4.6 µM
O=C(NCCCCCCNc1c2c(nc3ccccc13)CCCC2)c1ccccc1O,IC50,Acetylcholinesterase [24],0.02 µM
same,IC50,Cholinesterase [3],0.01 µM
Cc1ccc(-c2nc3cc(C(=O)Nc4ccc(O)cc4)ccc3[nH]2)cc1,IC50,Acetylcholinesterase [5],> 100 µM
same,IC50,[6],1.13 µM
CCN(C)C(=O)Oc1ccc(CCCNC(=O)c2cccc3[nH]c(-c4ccccc4O)nc23)cc1,inhibition,[25],60.8%
COc1ccc2c(c1)CC/C(=C\c1ccc[n+](Cc3ccc(Br)cc3)c1)C2=O,IC50,Acetylcholinesterase [19],17.6 µM
same,IC50,Cholinesterase [20],0.883 µM
CCC(CC)CN[C@H](Cc1c[nH]c2ccccc12)C(=O)NCCN1CCc2ccccc2C1,IC50,Acetylcholinesterase [4],> 10 µM
same,IC50,Cholinesterase [1],0.3 µM
CON(C)C(=O)Oc1cc(C)ccc1C(=O)NCCc1c[nH]c2ccc(Cl)cc12,IC50,Cholinesterase [3],0.057 µM
same,IC50,Acetylcholinesterase [4],> 100 µM
same,Ratio IC50,[14],> 1750
COc1cc(CNCCCNc2c3c(nc4ccccc24)CCCCC3)ccc1O,IC50,Acetylcholinesterase [24],3.01 µM
same,IC50,Cholinesterase [26],0.357 µM
O=C(Nc1ccccc1Cl)C(NS(=O)(=O)c1ccccc1)c1ccccc1 (stereo not drawn),IC50,Cholinesterase [3],7.33 µM
same,inhibition,[11],1.62%
CCCCCCNC(=O)Oc1ccc2c(c1)CN1CCc3ccc(/N=N/c4ccccc4)cc3C1N2C (stereo not drawn),inhibition,Acetylcholinesterase [21],28.5%
C/C(NCCCCNc1c2c(nc3ccccc13)CCCC2)=C(/N=N/c1ccc(C)cc1)C(=O)c1ccccc1,IC50,Cholinesterase [27],0.35 µM
